In patent publication US10865203B2, “Ligands selective to alpha 6 subunit-containing GABAA receptors and their methods of use” (UWM Research Foundation, Inc., priority 2015, dated 2020):

How the values were obtained:
[1] = system: mice, methamphetamine-induced hyperlocomotion; assay: Locomotor activity, methamphetamine-induced hyperlocomotion; format: in vivo, mouse
Method: The locomotor activity of the mouse was measured by its interruptions of infra-red photobeans in a locomotor cage (42 cm×42 cm×36 cm) in the photobeam activity system (San Diego Instruments, San Diego, Calif.). After acclimation, the mouse was treated with ci extract or vehicle for 15 min, followed by ma (2 mg/kg). Then, the mouse was gently placed in the locomotor cage and the horizontal and vertical interruptions were counted every 5 min for 60 min. Total locomotor activity was the sum of interruptions within 60 min.
Mice were anaesthetized with sodium pentobarbital (60 mg/kg i.p.) And placed in a stereotaxic frame keeping the bregma-lambda axis horizontal. After shaving the hair and exposing the skull surface, the mouse was implanted with two 24-gauge stainless-steel guide cannulas, respectively, directing towards the right and left lateral cerebella (−6.4 mm caudal, ±1.5 mm lateral, −1.0 mm ventral from bregma) according to the stereotaxic coordinate of the mouse (Paxions 2001). The cannulas were fixed on the top of the skull by stainless steel screws and dental cement. The animal was allowed to fully recover after surgery for at least one week before the behavioral test was conducted.
On the day for behavioral tests, a 30-gauge injection cannula connected to a 1 μL hamilton syringe was inserted into the guide cannula for drug injection. The drug solution of 0.5 μL in each side was slowly infused with a microinfusion pump (kds311, kd scientific inc.) For 30 s with a further “hold” time for 60 s. The microinjection site was confirmed by the positive staining of trypan blue, which was injected through the cannula after behavioral tests. Data from mice with offsite injections were discarded.

mice, motor coordination = assay: Rotarod test; format: in vivo, mouse; conditions: 3 mg/kg, 15 min after treatment
Method: The motor coordinating activity of the mouse was measured by its performance on a rotarod in the sdi rotor-rodtm system (San Diego Instruments, San Diego, Calif.). The mouse was trained four times a day for 3 days until it could stay on the rotating drum at a rotating speed of 24 rpm for at least 120 sec. Then, the mouse was subjecting to the rotarod test at the rotating speed accelerating gradually from 0 to 30 rpm, and the latency to fall from the rotating drum was recorded. The cut-off time for the latency to fall was 300 sec. Animals were treated with the tested drug or vehicle for 15 min before receiving the test.

[2] = system: mice, apomorphine-induced stereotypy climbing; assay: Apomorphine-induced stereotypy behaviors; format: in vivo, mouse; conditions: 3 mg/kg i.p., apomorphine 1 mg/kg s.c.
Method: The mouse was placed into a lidded cylindrical cage (diameter: 12 cm; height: 14 cm) made with 1 cm-separated metal grids for 1 hour's habituation. Then, the mouse received apomorphine (1 mg/kg, s.c.) Injection. The behaviors of the mouse were videotaped, and the stereotypy behaviors were scored every 5 min for 1 min, starting from 15 min before apomorphine injection until 60 min after injection.
The stereotypy behaviors induced by apomorphine were scored by reference to a previous report (Park et al. 2003) with modifications as the followings: 0: normal behaviors (sleeping, normal sniffing); 1: increased activity and sniffing (grooming, rearing, paw licking, jumping); 2: occasional clinging to the side wall of the cage with forepaws; 3: intermittent clinging to the top lid of the cage with all four paws; 4: uninterrupted climbing with all four paws to the top lid. The highest rating score during the 1 min-recording period was counted.

[3] = system: mice, forelimb grip strength; assay: Grip strength test; format: in vivo, mouse; conditions: 3 mg/kg, 15 min after treatment
Method: Forelimb grip strength was measured by the grip force of forepaws of the mouse using the sdi grip strength system (San Diego Instrument, San Diego, Calif.). The grip strength was recorded by the maximum of three permissible readings (in grams). The test was conducted every 2 min for three times, and the averaged grip strength was recorded. Animals were treated with the tested drug or vehicle for 15 min before the test.

[4] = Pharmacokinetic study in mice, plasma and brain; format: in vivo, mouse; conditions: nanoemulsion
Method: Five pharmacokinetic studies have been performed; four in male Wistar rats and one in male Swiss mice. […] At predetermined time intervals, i.e., 5, 20, 60, 180, and 720 min after dosing, the blood and brain samples of the rat were collected. […] At predetermined time intervals, i.e., 5, 20, 40, 120, and 360 min, the blood and brain samples of the mouse were collected.

male Wistar rats = assay: Rotarod performance, pilot experiment; format: in vivo, rat; conditions: acute, dose range 10-55 mg/kg, 20 min after administration

Compound | effect of intra-cerebellum furosemide on the rescue of hyperlocomotion ([1]; furosemide 10 nmol) | methamphetamine-induced hyperlocomotion ([1]; mice, 3 mg/kg i.p., METH 2 mg/kg i.p., 60 min) | spontaneous motor activity ([1]; mice, 3 mg/kg i.p., saline instead of METH) | motor coordination in the rotarod test (mice, motor coordination) | stereotypy climbing behaviors induced by apomorphine [2] | grip strength [3] | total concentrations in mouse brain ([4]; 10 mg/kg i.p.) | maximum concentration in mouse brain ([4]; 30 mg/kg i.p.) [µmol/L] | rotarod performance (male Wistar rats)
COc1ccc(-n2nc3c4ccc(OC)cc4[nH]cc-3c2=O)cc1 [Compound 6, 7-Methoxy-2-(4-methoxyphenyl)-2,5-dihydro-3H-pyrazolo[4,3-c]quinolin-3-one] | significantly antagonized | significantly rescued | did not affect | did not affect | did not affect | did not affect | – | – | –
[2H]C([2H])([2H])Oc1ccc(-n2nc3c4ccc(OC)cc4[nH]cc-3c2=O)cc1 [DK-I-56-1, 7-Methoxy-2-(4-methoxy-d3-phenyl)-2,5-dihydro-3H-pyrazolo[4,3-c]quinolin-3-one] | – | – | – | – | – | – | submicromolar | 7.5 | did not impair
